Test results published in ChEMBL document CHEMBL5108043, “Novel benzimidazole-based pseudo-irreversible butyrylcholinesterase inhibitors with neuroprotective activity in an Alzheimer's disease mouse model” (RSC Med Chem, 2022).
≈ marks a conversion by molar mass, not a printed value. Calls of active or inactive are those of the source. The rule behind the calls is not given here.

Legend:
Acetylcholinesterase [1] = biological target: T1, Acetylcholinesterase (Homo sapiens, UniProt P22303)
Description: Inhibition of human AChE using acetylthiocholine iodide as substrate preincubated for 20 mins followed by substrate addition and measured every 30 sec for 3 mins by DTNB-based UV analysis

Cholinesterase [2] = biological target: T2, Cholinesterase (Homo sapiens, UniProt P06276)
T2 sequence (P06276 whole entry): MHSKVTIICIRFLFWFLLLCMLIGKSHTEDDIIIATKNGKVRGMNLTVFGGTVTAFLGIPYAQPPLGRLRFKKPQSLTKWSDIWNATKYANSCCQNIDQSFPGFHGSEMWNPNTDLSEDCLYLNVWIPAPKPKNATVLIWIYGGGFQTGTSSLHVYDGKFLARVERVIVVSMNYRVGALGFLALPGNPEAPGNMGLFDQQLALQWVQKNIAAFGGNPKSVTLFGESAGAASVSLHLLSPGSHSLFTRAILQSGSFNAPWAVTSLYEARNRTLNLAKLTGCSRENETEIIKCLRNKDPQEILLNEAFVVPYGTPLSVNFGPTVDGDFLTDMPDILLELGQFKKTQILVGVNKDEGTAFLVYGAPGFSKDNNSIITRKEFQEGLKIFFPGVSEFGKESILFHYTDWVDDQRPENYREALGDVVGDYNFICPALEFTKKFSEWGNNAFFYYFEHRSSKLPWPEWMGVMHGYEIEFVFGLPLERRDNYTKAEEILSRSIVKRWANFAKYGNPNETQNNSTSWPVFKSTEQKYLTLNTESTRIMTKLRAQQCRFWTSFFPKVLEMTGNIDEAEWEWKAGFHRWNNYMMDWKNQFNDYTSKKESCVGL
Description: Inhibition of human BChE using butyrylthiocholineiodide as substrate preincubated for 20 mins followed by substrate addition and measured every 30 sec for 3 mins by DTNB-based UV analysis

physchem = settings: PBS buffer
Description: (§1) Solubility of the compound in PBS buffer incubated overnight at room temperature by HPLC based continuous shake-flask method

Acetylcholinesterase [3] = biological target: T1, Acetylcholinesterase; test: Inhibition of human AChE using acetylthiocholine iodide as substrate at 10 uM preincubated for 20 mins followed by substrate addition and measured every 30 sec for 3 mins by DTNB-based UV analysis relative to control; settings: time 23.0 min
Cannabinoid receptor 2 [4] = biological target: T3, Cannabinoid receptor 2 (Homo sapiens, UniProt P34972); test: Binding affinity to human CB2 receptor expressed in HEK cells at 10 uM relative to control; format: cell-based
T3 sequence (P34972 whole entry): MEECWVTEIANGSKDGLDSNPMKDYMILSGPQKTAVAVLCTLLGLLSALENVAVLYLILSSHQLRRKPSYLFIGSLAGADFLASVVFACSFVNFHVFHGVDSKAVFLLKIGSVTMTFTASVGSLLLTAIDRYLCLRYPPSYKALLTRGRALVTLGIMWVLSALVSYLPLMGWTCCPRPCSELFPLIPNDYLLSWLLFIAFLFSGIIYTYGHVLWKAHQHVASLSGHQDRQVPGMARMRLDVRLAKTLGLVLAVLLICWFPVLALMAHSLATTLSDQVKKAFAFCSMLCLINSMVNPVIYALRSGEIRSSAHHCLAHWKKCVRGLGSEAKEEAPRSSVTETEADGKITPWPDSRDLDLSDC

[5] = Neurotoxicity against mouse HT-22 cells assessed as cell viability at 1 to 25 uM by MTT assay; format: toxicity, cell-based; settings: ht-22, 25 µM, dose 1-25 µM
[6] = buffer
Description: as §1

Cholinesterase [7] = biological target: T2, Cholinesterase; settings: time 1.0 hrs
Mus musculus [8] = test: Anti-alzheimer activity against amyloid beta 25-35 induced learning impairments in Swiss mouse assessed as attenuation of spatial working memory at 0.03 mg/kg, ip administered for 7 days and measured on day 8 by Y-maze test; format: functional, organism-based; settings: time 8.0 day
Cannabinoid receptor 2 [9] = biological target: T3, Cannabinoid receptor 2; test: Displacement of [3H]CP55940 from human CB2 receptor expressed in HEK cells incubated for 3 hrs by competitive assay; format: cell-based
[10] = Neurotoxicity against mouse HT-22 cells assessed as cell viability at 0.75 to 25 uM by MTT assay; format: toxicity, cell-based; settings: ht-22, 25 µM, dose 0.75-25 µM
Mus musculus [11] = test: Anti-alzheimer activity against amyloid beta 25-35 induced learning impairments in Swiss mouse assessed as attenuation of long-term memory at 0.03 mg/kg, ip administered for 7 days and measured on day 10 by passive avoidance test; format: functional, organism-based; settings: time 10.0 day
Cholinesterase [12] = biological target: T2, Cholinesterase; test: Pseudo-irreversible inhibition of human BChE using butyrylthiocholineiodide as substrate assessed as rate constant k3 preincubated for 20 mins followed by substrate addition and measured every 30 sec for 3 mins by DTNB-based UV analysis; settings: time 23.0 min
Cholinesterase [13] = biological target: T2, Cholinesterase; test: Pseudo-irreversible inhibition of human BChE using butyrylthiocholineiodide as substrate assessed as equilibrium constant Kc preincubated for 20 mins followed by substrate addition and measured every 30 sec for 3 mins by DTNB-based UV analysis; settings: time 23.0 min
Cholinesterase [14] = biological target: T2, Cholinesterase; test: Pseudo-irreversible inhibition of human BChE assessed as decarbamylation of enzyme by measuring rate constant k4 incubated for 1 hrs

T1 sequence (P22303 whole entry): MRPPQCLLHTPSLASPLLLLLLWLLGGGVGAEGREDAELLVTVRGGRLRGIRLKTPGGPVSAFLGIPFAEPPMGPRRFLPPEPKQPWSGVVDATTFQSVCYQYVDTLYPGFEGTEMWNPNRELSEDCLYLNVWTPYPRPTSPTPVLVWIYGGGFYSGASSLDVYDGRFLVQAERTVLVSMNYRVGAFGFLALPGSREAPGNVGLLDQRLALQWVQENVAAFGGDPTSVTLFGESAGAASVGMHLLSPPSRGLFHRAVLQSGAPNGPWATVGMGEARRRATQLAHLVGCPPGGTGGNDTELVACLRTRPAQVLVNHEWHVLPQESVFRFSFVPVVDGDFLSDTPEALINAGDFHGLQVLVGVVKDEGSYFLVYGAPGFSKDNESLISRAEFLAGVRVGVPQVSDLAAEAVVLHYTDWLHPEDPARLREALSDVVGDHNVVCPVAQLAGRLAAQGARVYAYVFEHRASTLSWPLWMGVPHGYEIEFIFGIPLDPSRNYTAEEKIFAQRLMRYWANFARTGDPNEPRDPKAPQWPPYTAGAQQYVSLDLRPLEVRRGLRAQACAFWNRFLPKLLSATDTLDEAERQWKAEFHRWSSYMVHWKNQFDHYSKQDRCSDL

SMILES | IC50 (Acetylcholinesterase [1]) [nM] | IC50 (Cholinesterase [2]) [nM] | solubility thermodynamic (physchem) [µg/mL] | inhibition (Acetylcholinesterase [3]) [%] | other results
CCCCCCCNC(=O)Oc1ccc(Cc2nc3cc(C(=O)N4CCCCC4)ccc3n2CCC(C)C)cc1 | 58 | 30.6 | < 1 | – | –
CCN(CC)C(=O)c1ccc2c(c1)nc(Cc1ccc(OC(=O)N3CCCC3)cc1)n2CCC(C)C | – | 139 | 3.9 (≈ 7.95 µM) | 16 | Activity (Cannabinoid receptor 2 [4]): < 10%
CCCCCCCNC(=O)Oc1ccc(Cc2nc3cc(C(=O)NCCC(C)C)ccc3n2CCC(C)C)cc1 | – | 3.7 | < 1 | 55 | –
CCN(CC)C(=O)c1ccc2c(c1)nc(Cc1ccc(O)cc1)n2CCC(C)C | – | – | – | – | Activity [5]: Non-Toxic
CCCCCCCNC(=O)Oc1ccc(Cc2nc3cc(C(=O)Nc4ccccc4)ccc3n2CCC(C)C)cc1 | – | 15.5 | – | 49 | solubility [6]: Insoluble
CCN(CC)C(=O)c1ccc2c(c1)nc(Cc1ccc(OC(=O)N3CCC3)cc1)n2CCC(C)C | 631 | – | 7.2 (≈ 15.1 µM) | – | T1/2 (Cholinesterase [7]): 56.3 min; Activity (Mus musculus [8]): Active; IC50 (Cannabinoid receptor 2 [9]): 5010 nM; Activity [10]: Non-Toxic; Activity (Mus musculus [11]): Active; K (Cholinesterase [12]): 8.9 min⁻¹; K (Cholinesterase [13]): 3 µM; K (Cholinesterase [14]): 0.74 h⁻¹
CCN(CC)C(=O)c1ccc2c(c1)nc(Cc1ccc(OC(=O)NCCCCCCN3CCc4ccccc4C3)cc1)n2CCC(C)C | 9520 | 76.5 | – | – | solubility [6]: Insoluble
CCCCCCCNC(=O)Oc1ccc(Cc2nc3cc(C(=O)N(CC)CC)ccc3n2CCCCN2CCCCC2)cc1 | 2150 | 2410 | 67 (≈ 111 µM) | – | –
CCCCCCCNC(=O)Oc1ccc2c(c1)CN1CCc3ccccc3C1N2C (stereo unspecified) | – | – | < 1 | 39 | –
CCCCCCCNC(=O)Oc1ccc(Cc2nc3cc(C(=O)N(CC)CC)ccc3n2CCC(C)C)cc1 | 175 | 13.2 | < 1 | – | Activity (Cannabinoid receptor 2 [4]): 33%
